Experimental data taken from PMC12301332, “Biased antagonism of a series of bicyclic CXCR2 intracellular allosteric modulators” (Frontiers in Pharmacology, 2025).

Legend:
[1] = target: T1, CXCR2 (Homo sapiens, UniProt P25025); parameters: method as in Boon et al., 2024; conditions: agonist concentration used in NanoBRET assays; ref Boon et al., 2024; cited from earlier work
T1 construct: expressed in transfected cells
T1 sequence (P25025 1-360): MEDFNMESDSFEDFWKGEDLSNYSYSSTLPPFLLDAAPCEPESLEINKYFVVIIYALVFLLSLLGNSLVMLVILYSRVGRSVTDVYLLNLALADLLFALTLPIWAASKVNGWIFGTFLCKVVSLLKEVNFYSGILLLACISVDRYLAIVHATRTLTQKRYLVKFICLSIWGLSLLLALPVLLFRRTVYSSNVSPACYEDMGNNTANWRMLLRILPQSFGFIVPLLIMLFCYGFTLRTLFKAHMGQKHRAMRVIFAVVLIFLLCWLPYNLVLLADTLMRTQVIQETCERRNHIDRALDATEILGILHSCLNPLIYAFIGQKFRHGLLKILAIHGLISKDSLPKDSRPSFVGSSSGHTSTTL

[2] = target: T1, CXCR2; parameters: method as in Boon et al., 2024; conditions: agonist concentration used in NanoBRET assays; ref Boon et al., 2024; cited from earlier work; remark: listed apart in the source
[3] = target: T1, CXCR2; test: NanoBRET-based G protein activation inhibition assay (REGA-SIGN Gαi1 dissociation) in HEK293A.CXCR2 cells; type: cell-based; conditions: n = 3; for IC50: mean; for Imax Gαi1 (maximum observed inhibitory effect): normalized to Imax of navarixin = 100%
Description: Cells were trypsinized and resuspended at 3 × 10^5 cell/mL in the growth medium, whereafter they were incubated for 2 hours at RT. Cells were transfected in suspension using FuGENE® HD Transfection Reagent at a 3:1 reagent to DNA ratio in Opti-MEMTM I Reduced-Serum Medium, with the final DNA concentration of 1 μg/μL. The transfection mixture was incubated for 10 min at RT before adding it to the cell suspension. Transfected cells were seeded at 3.0 × 10^4 cells/well in a white, clear, flat-bottom 96-well plate coated with 100 μg/mL poly-D-lysin ([…], Sigma Aldrich) and incubated for 48 h at 37°C and 5% CO2. […] (2023)]. Following the 48-h incubation period, cells were washed with the assay buffer. Compounds were serially diluted in 1:500 Nano-Glo® Vivazine^TM working solution (#N2581, Promega), and 90 μL of compound/Vivazine mix was added, followed by incubation for 45 min at 37°C and 5% CO2. Plates were transferred to the FLIPR Penta system (Molecular Devices) at 37°C, and all steps onward are automated and performed by the FLIPR Penta system. After a 10-min equilibration period, the baseline BRET signal was determined by five consecutive reads followed by automatic administration of 10 μL of 10× ligand (Table 1) to the cell plate. Changes in the BRET signal was measured for 10 min, with each read spaced by 2.5 s. […] BRET ratios were extracted from ScreenWorks software (Molecular Devices) and represent the ratio between the acceptor emission of […]2 or mNG (G protein or β-arrestin recruitment, respectively) and NLuc donor emission. The basal BRET ratio was defined as the average BRET ratio of the five consecutive readings preceding ligand addition. Changes in BRET values post ligand administration (ΔBRET) were calculated for each well as a percentage difference to the previously defined basal BRET ratio. Average ΔBRET values were baseline corrected by subtracting the average negative control BRET ratio (unstimulated condition). […] AUCs were normalized to the positive control (stimulated condition); whereafter, dose-response curves were fitted to log (inhibitor) vs response (three parameters) in GraphPad 10.2.0 (GraphPad Software). […] Calculation 1: calculation of the BRET signal. • 1. […] NC correctedΔBRET=Δ[…]. • 4. a. Neg AUC of NC correctedΔBRET=Gα activation read out. b. Pos AUC of NC correctedΔBRET=β-arrestin recruitment.

[4] = target: T1, CXCR2; test: NanoBRET β-arrestin1 recruitment inhibition assay (NanoLux) in HEK293A cells; type: cell-based; conditions: n = 3; for IC50: mean, read-out: IC50 βarr1; for Imax βarr1 (maximum observed inhibitory effect): normalized to Imax of navarixin = 100%
Description: Cells were trypsinized and resuspended at 3 × 10^5 cell/mL in the growth medium, whereafter they were incubated for 2 hours at RT. Cells were transfected in suspension using FuGENE® HD Transfection Reagent at a 3:1 reagent to DNA ratio in Opti-MEMTM I Reduced-Serum Medium, with the final DNA concentration of 1 μg/μL. The transfection mixture was incubated for 10 min at RT before adding it to the cell suspension. Transfected cells were seeded at 3.0 × 10^4 cells/well in a white, clear, flat-bottom 96-well plate coated with 100 μg/mL poly-D-lysin ([…], Sigma Aldrich) and incubated for 48 h at 37°C and 5% CO2. HEK293A cells were transiently co-transfected with plasmids encoding β-arrestin1 protein tagged with NLuc (donor) and CXCR2 protein tagged with mNeonGreen (mNG) acceptor in a 1:10 donor to acceptor ratio, as described previously ([Luís et al., 2022]). All subsequent steps are identical to those in “NanoBRET-based G protein activation inhibition assay,” which are described above. Measurements were acquired using a 440- to 480-nm donor emission filter (#0200-6179, Molecular Devices) and a 515- to 575-nm acceptor emission filter (#0200-6203, Molecular Devices) BRET ratios were extracted from ScreenWorks software (Molecular Devices) and represent the ratio between the acceptor emission of […]2 or mNG (G protein or β-arrestin recruitment, respectively) and NLuc donor emission. The basal BRET ratio was defined as the average BRET ratio of the five consecutive readings preceding ligand addition. Changes in BRET values post ligand administration (ΔBRET) were calculated for each well as a percentage difference to the previously defined basal BRET ratio. Average ΔBRET values were baseline corrected by subtracting the average negative control BRET ratio (unstimulated condition). […] AUCs were normalized to the positive control (stimulated condition); whereafter, dose-response curves were fitted to log (inhibitor) vs response (three parameters) in GraphPad 10.2.0 (GraphPad Software). […] Calculation 1: calculation of the BRET signal. • 1. […] NC correctedΔBRET=Δ[…]. • 4. a. Neg AUC of NC correctedΔBRET=Gα activation read out. b. Pos AUC of NC correctedΔBRET=β-arrestin recruitment.

IC50 ([3]; CXCL1 at EC80) [nM] | Imax Gαi1 (maximum observed inhibitory effect) ([3]; CXCL1 at EC80) [%] | IC50 ([3]; CXCL2 at EC80) [nM] | Imax Gαi1 (maximum observed inhibitory effect) ([3]; CXCL2 at EC80) [%] | IC50 ([3]; CXCL3 at EC80) [nM] | Imax Gαi1 (maximum observed inhibitory effect) ([3]; CXCL3 at EC80) [%] | IC50 ([3]; CXCL5 at EC80) [nM] | Imax Gαi1 (maximum observed inhibitory effect) ([3]; CXCL5 at EC80) [%] | Imax Gαi1 (maximum observed inhibitory effect) ([3]; CXCL6 at EC80) [%] | Imax Gαi1 (maximum observed inhibitory effect) ([3]; CXCL7 at EC80) [%] | Imax Gαi1 (maximum observed inhibitory effect) ([3]; CXCL8 at EC80) [%] | Imax βarr1 (maximum observed inhibitory effect) ([4]; CXCL1 at EC80) [%] | Imax βarr1 (maximum observed inhibitory effect) ([4]; CXCL2 at EC80) [%] | Imax βarr1 (maximum observed inhibitory effect) ([4]; CXCL3 at EC80) [%] | Imax βarr1 (maximum observed inhibitory effect) ([4]; CXCL5 at EC80) [%] | Imax βarr1 (maximum observed inhibitory effect) ([4]; CXCL6 at EC80) [%] | Imax βarr1 (maximum observed inhibitory effect) ([4]; CXCL7 at EC80) [%] | Imax βarr1 (maximum observed inhibitory effect) ([4]; CXCL8 at EC80) [%] | Molecule | G-protein EC80 [1] [nM] | β-arrestin EC80 [2] [nM] | further results
– | – | – | – | – | – | – | – | – | – | – | – | – | – | – | – | – | – | CXCL6: recombinant human ELR+ chemokine, CXCR2 ligand (PeproTech) | 17.12 | 168.00 | –
– | – | – | – | – | – | – | – | – | – | – | – | – | – | – | – | – | – | CXCL2: recombinant human ELR+ chemokine, CXCR2 ligand (PeproTech) | 2.15 | 147.8 | –
– | – | – | – | – | – | – | – | – | – | – | – | – | – | – | – | – | – | CXCL1: recombinant human ELR+ chemokine, CXCR2 ligand (PeproTech) | 3.20 | 59.18 | –
– | – | – | – | – | – | – | – | – | – | – | – | – | – | – | – | – | – | CXCL3: recombinant human ELR+ chemokine, CXCR2 ligand (PeproTech) | 8.92 | 100.10 | –
– | – | – | – | – | – | – | – | – | – | – | – | – | – | – | – | – | – | CXCL8: recombinant human ELR+ chemokine, CXCR2 ligand (PeproTech) | 4.16 | 17.29 | –
> 15000 | <50 | > 15000 | <50 | > 15000 | <50 | > 15000 | <50 | <50 | <50 | <50 | 97.29 ± 1.61 | 96.96 ± 5.75 | 100 | 100 | 100 | 98.49 ± 1.76 | 100 | CCCC(C)CSc1nc(NC(C)CO)c2nn[nH]c2n1 (centres unmarked) [MVH-82] | – | – | IC50 ([3]; CXCL6 at EC80): > 15000 nM; IC50 ([3]; CXCL7 at EC80): > 15000 nM; IC50 ([3]; CXCL8 at EC80): > 15000 nM; IC50 ([4]; CXCL1 at EC80): 2130 ± 340 nM; IC50 ([4]; CXCL2 at EC80): 740 ± 160 nM; IC50 ([4]; CXCL3 at EC80): 2530 ± 150 nM; IC50 ([4]; CXCL5 at EC80): 1330 ± 470 nM; IC50 ([4]; CXCL6 at EC80): 880 ± 470 nM; IC50 ([4]; CXCL7 at EC80): 370 ± 110 nM; IC50 ([4]; CXCL8 at EC80): 2320 ± 720 nM
– | – | – | – | – | – | – | – | – | – | – | – | – | – | – | – | – | – | CXCL5: recombinant human ELR+ chemokine, CXCR2 ligand (PeproTech) | 5.16 | 86.19 | –
– | 94.85 ± 3.70 | – | 100 | – | 100 | – | 94.29 ± 2.32 | 100 | 100 | 100 | 100 | 100 | 100 | 100 | 100 | 100 | 100 | CC(CO)Nc1nc(SCc2cccc(F)c2F)nc2nc(N)sc12 (centres unmarked) [MVH-23] | – | – | –
> 15000 | <50 | > 15000 | <50 | > 15000 | <50 | > 15000 | <50 | <50 | <50 | <50 | 100 | 100 | 100 | 100 | 100 | 100 | 100 | CC(CO)Nc1nc(SCc2cccc(F)c2F)nc2[nH]cnc12 (centres unmarked) [MVH-15] | – | – | IC50 ([3]; CXCL6 at EC80): > 15000 nM; IC50 ([3]; CXCL7 at EC80): > 15000 nM; IC50 ([3]; CXCL8 at EC80): > 15000 nM; IC50 ([4]; CXCL1 at EC80): 3510 ± 830 nM; IC50 ([4]; CXCL2 at EC80): 2060 ± 570 nM; IC50 ([4]; CXCL3 at EC80): 4290 ± 1160 nM; IC50 ([4]; CXCL5 at EC80): 2100 ± 360 nM; IC50 ([4]; CXCL6 at EC80): 2280 ± 570 nM; IC50 ([4]; CXCL7 at EC80): 700 ± 140 nM; IC50 ([4]; CXCL8 at EC80): 4070 ± 1600 nM
> 15000 | <50 | > 15000 | <50 | > 15000 | <50 | > 15000 | <50 | <50 | <50 | <50 | 100 | 100 | 100 | 100 | 100 | 97.6 ± 3.45 | 100 | CC(CO)Nc1nc(SCc2cccc(F)c2F)nc2ncsc12 (centres unmarked) [MVH-22] | – | – | IC50 ([3]; CXCL6 at EC80): > 15000 nM; IC50 ([3]; CXCL7 at EC80): > 15000 nM; IC50 ([3]; CXCL8 at EC80): > 15000 nM; IC50 ([4]; CXCL1 at EC80): 2850 ± 680 nM; IC50 ([4]; CXCL2 at EC80): 1500 ± 180 nM; IC50 ([4]; CXCL3 at EC80): 3440 ± 750 nM; IC50 ([4]; CXCL5 at EC80): 1960 ± 530 nM; IC50 ([4]; CXCL6 at EC80): 1470 ± 200 nM; IC50 ([4]; CXCL7 at EC80): 500 ± 70 nM; IC50 ([4]; CXCL8 at EC80): 2660 ± 300 nM
